# How the values were obtained:
# CYP2C9 = CYP2C9 (Homo sapiens, UniProt P11712); assay: IC50 assay, diclofenac 4'-hydroxylation in HLM
# CYP1A2 [1] = target: T1, CYP1A2 (Homo sapiens, UniProt P05177); assay: Mechanism-based (time-dependent) inhibition of CYP1A2 by piperlongumine; type: in vitro ADME; set-up: kinact: dose or concentration left out as unconfirmed; details: human liver microsomes, pH 7.4, probe phenacetin […] µM
# Method: Reactions were terminated as described above.
# (§1) The kinetic parameters were calculated from nonlinear regression using GraphPad Prism Version 3.03 (San Diego, CA, USA). The Intrinsic Clearance (CLint) was obtained considering the Hill coefficient. The Unbounded Intrinsic Clearance (CLuint), Predicted in vivo Clearance (CL) and Hepatic Clearance (CLH) were determined according to Subramarian and Tracy[15] and Austin et al.[17]. Hepatic extraction ratio was calculated according to Kashuba et al.[21]. Dose-dependent inhibition parameters were determined employing SigmaPlot version 12.0 (Chicago, IL, USA). The Lineweaver-Burk plot was used to determine the inhibition profile. The second plot of slopes from Lineweaver-Burk plot versus PPL concentrations was utilized to calculate the Ki. The parameters kinact and KI in time-dependent inhibition were calculated employing GraphPad Prism Version 3.03.
# [2] = tested on: recombinant human CYP (rhCYP) isoforms; assay: P450 reaction phenotyping by rhCYP isoforms; type: in vitro ADME; details: specific inhibitors in pooled HLM and recombinant CYP450 isoforms
# Method: The capacity of selected major human P450 isoforms to metabolize PPL was screened using human recombinant isoenzymes. Briefly, PPL (S50 concentration) was added into a 200 μL incubation mixture containing P450 isoform (50 pmol/mL for CYP3A4, CYP1A2, CYP2C9, 2B6, 2D6 and 2C19; 25 pmol/mL for CYP2C8 and […]; final concentrations), NADPH regeneration system solution A (1.3 mM NADP^+ and 3.3 mM glucose-6-phosphate), NADPH regeneration system solution B (0.4 U/mL glucose-6-phosphate dehydrogenase), potassium phosphate buffer pH 7.4 (100 mM), except for CYP2C9 where the phosphate buffer was substituted by tris buffer pH 7.5 (100 mM), maintaining for 50 min in shaking water bath. In order to enhance the sensibility one sample was pooled from 4 single reactions. PPL metabolites were analyzed by a GC-MS as described previously. The MS peak areas of PPL metabolites were recorded to determine the contributions of the P450 enzymes.
# Phenotyping study at 50 min. In order to evaluate the CYP isoforms involved in M4 formation, a similar study as described in the main text was performed, except by the time of incubation of 50 min (Fig. S13).
# CYP1A2 [3] = target: T1, CYP1A2; assay: IC50 assay, phenacetin O-deethylation in HLM
# CYP2D6 = CYP2D6 (Homo sapiens, UniProt P10635); assay: biochemical
# CYP2D6, sequence (P10635 whole entry): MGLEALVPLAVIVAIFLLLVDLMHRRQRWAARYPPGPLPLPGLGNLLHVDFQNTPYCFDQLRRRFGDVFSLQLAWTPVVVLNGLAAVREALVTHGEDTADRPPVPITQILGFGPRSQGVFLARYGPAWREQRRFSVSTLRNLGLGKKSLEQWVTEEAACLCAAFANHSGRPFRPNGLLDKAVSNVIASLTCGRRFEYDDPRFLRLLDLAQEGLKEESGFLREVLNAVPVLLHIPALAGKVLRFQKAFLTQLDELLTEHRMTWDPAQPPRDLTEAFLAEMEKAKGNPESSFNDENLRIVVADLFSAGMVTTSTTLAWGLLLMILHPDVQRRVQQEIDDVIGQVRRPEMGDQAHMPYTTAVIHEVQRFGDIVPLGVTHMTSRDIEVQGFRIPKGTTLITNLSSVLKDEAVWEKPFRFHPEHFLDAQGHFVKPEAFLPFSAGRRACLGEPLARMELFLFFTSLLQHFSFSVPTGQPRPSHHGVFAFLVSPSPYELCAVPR
# [4] = Piperlongumine plasma protein binding (ultrafiltration); type: in vitro ADME
# Method: Piperlongumine-protein binding. An in vitro study with a microsomal and plasma protein was carried out using a concentration of PPL approximately corresponding to its S50 (n = 3). The plasma protein binding was evaluated to predict the in vivo clearance, using a plasma protein concentration of 42 mg/mL. The samples were incubated with pooled human liver microsomes at 37 °C as described in section above. The same V0 conditions obtained (protein concentration and incubation time) were applied in this study, but in the absence of the cofactor NADPH. Furthermore, a control sample without protein was analyzed simultaneously for comparison purposes. These mixtures were added to the centrifugal filter device (Microcon YM-30, 30,000 molecular weight cut-off; Millipore Corporation, Bedford, MA, USA) and centrifuged at 21800 x g for 30 min at 37 °C (Hitachi CF16RXII, Himac, Tokyo, Japan). The ultra-filtrate was directly assayed by high-performance liquid chromatography at the conditions previously described.
# human liver microsomes = assay: In vitro kinetic study of PPL metabolism (substrate depletion) in human liver microsomes; type: in vitro ADME
# Method: The in vitro kinetic study was performed setting the incubation conditions through the maintenance of initial velocity (V0); 0.45 mg/mL microsomal protein and 16 min time incubation were selected and the substrate concentration was ranged from 0.38 to 283.6 μM. The substrate depletion was quantified employing an analytical validated method (Tables S1, S2 and S3 and Fig. S1-Supplementary Information).
# The metabolism was evaluated by measuring the rate of disappearance of the PPL peak. The incubations were performed in triplicate using 10 mL amber tubes. The metabolism medium consisted of substrate, a NADPH regeneration system solution A (1.3 mM NADP^+ and 3.3 mM glucose-6-phosphate), a NADPH regeneration system solution B (0.4 U/mL glucose-6-phosphate dehydrogenase), HLM and a potassium phosphate buffer pH 7.4 (100 mM) in a total volume of 200 μL. This microsomal medium was incubated in a shaking water bath at 37 °C. After pre-warming for 5 min at 37 °C to favor the formation of NADPH from the solutions A and B, the reaction was initiated by the addition of the HLM. To determine the enzymatic kinetic parameters, the linear conditions for microsomal protein concentration and for incubation time were optimized. The microsomal protein concentration was evaluated from 0.1 to 1.5 mg of protein per mL (n = 3), and the incubation time was varied from 0 to 40 min (n = 3). The linear range was obtained from these parameters and used to perform the substrate variation concentration at V0 conditions. The reactions were stopped by the addition of 200 μL of cold acetonitrile, gently agitated for 20 s and then centrifuged for 5 min at 2860x g. Finally, aliquots of the supernatant were removed and injected into the chromatographic system. Control incubations were performed in the absence of the cofactor solution and in the absence of the HLM. The difference between ‘with’ and ‘without’ NADPH was attributed to CYP450-mediated metabolism.
# as §1
# CYP1A2 [5] = target: T1, CYP1A2; assay: NADPH-dependent inhibition study; type: in vitro ADME; details: PPL at 1/2 IC50, pre-incubation 0 and 30 min
# Method: NADPH-dependent Inhibition. The mechanism-based inhibition is characterized by dose-, NADPH- and time-dependent cytochrome P450 oxidoreductase, so the NADPH dependence study was performed. […] NADPH regeneration system was added and the mixture was pre-incubated for 0 and 30 min. […] The mixture was incubated by 30 min and the reaction stopped as described previously. Controls without PPL were performed.
# T1 sequence (P05177 whole entry): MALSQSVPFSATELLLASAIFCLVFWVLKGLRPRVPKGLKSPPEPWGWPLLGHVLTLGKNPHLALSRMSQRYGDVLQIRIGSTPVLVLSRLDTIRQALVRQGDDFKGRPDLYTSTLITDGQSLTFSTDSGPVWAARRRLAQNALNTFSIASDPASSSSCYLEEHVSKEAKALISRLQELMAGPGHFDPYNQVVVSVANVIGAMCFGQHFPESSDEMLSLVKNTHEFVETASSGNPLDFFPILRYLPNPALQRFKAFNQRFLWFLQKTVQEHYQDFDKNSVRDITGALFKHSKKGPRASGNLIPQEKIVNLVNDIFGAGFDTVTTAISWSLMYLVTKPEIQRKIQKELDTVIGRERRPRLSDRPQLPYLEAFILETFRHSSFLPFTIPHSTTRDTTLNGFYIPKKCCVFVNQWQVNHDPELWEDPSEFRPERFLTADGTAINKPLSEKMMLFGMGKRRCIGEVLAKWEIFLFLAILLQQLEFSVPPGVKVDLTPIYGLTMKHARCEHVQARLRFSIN
# CYP2C9, sequence (P11712 whole entry): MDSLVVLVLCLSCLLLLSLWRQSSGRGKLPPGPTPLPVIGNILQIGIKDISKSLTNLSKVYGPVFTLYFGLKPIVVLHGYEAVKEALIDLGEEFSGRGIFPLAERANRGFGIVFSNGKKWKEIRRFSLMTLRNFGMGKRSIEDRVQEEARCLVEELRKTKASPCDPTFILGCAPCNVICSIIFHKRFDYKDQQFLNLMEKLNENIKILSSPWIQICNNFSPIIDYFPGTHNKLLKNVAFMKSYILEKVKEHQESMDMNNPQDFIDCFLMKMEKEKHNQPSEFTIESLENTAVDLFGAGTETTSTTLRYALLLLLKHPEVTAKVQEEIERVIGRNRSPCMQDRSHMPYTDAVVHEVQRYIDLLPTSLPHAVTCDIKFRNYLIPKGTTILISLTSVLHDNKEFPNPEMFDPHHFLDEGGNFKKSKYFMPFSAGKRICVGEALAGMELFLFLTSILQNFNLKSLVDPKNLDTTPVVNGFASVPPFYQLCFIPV
smiles,measurement,setting,value
"COc1cc(/C=C/C(=O)N2CCC=CC2=O)cc(OC)c1OC [PPL, Piperlongumine]",IC50,CYP2C9,> 100 µM
same,kinact,CYP1A2 [1],0.000233 s⁻¹
same,KI (inactivation),CYP1A2 [1]; read-out: KI (inactivation parameter),8 µM
same,main CYP isoenzymes involved in PPL metabolism,[2],CYP1A2 and CYP3A4
same,IC50,CYP1A2 [3],7.2 µM
same,IC50,CYP2D6,> 100 µM
same,plasma binding,"[4]; PPL approx. S50, plasma protein 42 mg/mL",93%
same,"fraction unbound at 16 min, 127.7 μM","[4]; plasma protein (42 mg/mL), PPL 127.70 μM, read-out: fuplasma (free fraction of the compound in plasma)",0.07
same,Hill coefficient,"human liver microsomes; HLM 0.45 mg/mL, 16 min",3.0
same,S50,"human liver microsomes; HLM 0.45 mg/mL, 16 min, sigmoidal profile",127.7 µM
same,Vmax,"human liver microsomes; HLM 0.45 mg/mL, 16 min, substrate 0.38 to 283.6 μM, sigmoidal profile",5.5 ± 0.5 nmol/mg protein/min
same,S50 in human relative to the value observed in rats,"human liver microsomes; human vs rat liver microsomes, rat value ref 19",2.7 times
same,NADPH dependence of CYP oxidative inhibition,CYP1A2 [5],NADPH-dependent

# From paper PMC5041077, “Metabolic profile and safety of piperlongumine” (Scientific Reports, 2016)
